Consider one molecule from patent publication US4551450A, “Rifamycin hydrazones, pharmaceutical compositions containing them and their use” (Ciba-Geigy Corporation, priority 1984, dated 1985).

The subject of data set [1] is Mycobacterium tuberculosis TB H3 Rv. Put plainly: Antituberculotic action, minimum inhibitory concentration in a plate test in vitro. It is filed as cell-based. As to conditions: Mycobacterium tuberculosis, TBH3RV, read-out: Antituberculotic action, MIC (minimum inhibitory concentration), plate test in vitro; M. tuberculosis TB H3 Rv. From the text:
(§1) (2) Test organism: Mycobacterium tuberculosis TB H3 Rv
(3) Minimum inhibitory concentration in a plate test in vitro.

The test system is the same in data set [2]. Put plainly: Antituberculotic action, in vivo test (mice), administration p.o. Set-up: species or system Mycobacterium tuberculosis; mice. As to conditions: Mycobacterium tuberculosis, TBH3RV, po, in vivo, mice, p.o.; read-out: Antituberculotic action, ED50.
Excerpt: as §1
(4) In vivo test (mice); administration p.o.

A short description of another data set: Pharmacokinetics in mice. The format is in vivo. As to conditions: mouse, plasma, blood plasma, read-out: Cmax (highest concentration of the active ingredient in the blood plasma). From the text: (§2) (5) Half-life period of excretion (in hours).
(§3) (6) Highest concentration of the active ingredient in the blood plasma.

A further data set in a line: Pharmacokinetics in rats. As to conditions: rat, blood plasma, read-out: Cmax (highest concentration of the active ingredient in the blood plasma). It is filed as in vivo.
Excerpt: as §2, §3

A further data set has as its system tuberculosis infections. As to conditions: prior art, U.S. Pat. No. 3,342,810; cited from earlier work.
For data set [3] the following is noted: prior art statement, in some cases; cited from earlier work.

Converted amounts (≈) assume the structure as drawn.

Consider `CO[C@H]1/C=C/O[C@@]2(C)Oc3c(C)c(O)c4c(O)c(c(/C=N/N5CCN(C)CC5)c(O)c4c3C2=O)NC(=O)/C(C)=C\C=C\[C@H](C)[C@H](O)[C@@H](C)[C@@H](O)[C@@H](C)[C@H](OC(C)=O)[C@@H]1C` [Rifampicin, hydrazone of 3-formylrifamycin SV with 1-amino-4-methylpiperazine, reference compound], for which, in data set [1], the MIC was 0.03 µg/mL (≈ 0.0365 µM). Further, the median effective dose (ED50) in data set [2] was found to be 5.9 mg/kg. The Cmax in “Pharmacokinetics in mice” came to 24800 ng/mL; in the data set “Pharmacokinetics in rats”, 13900 ng/mL. Further, the antituberculotic activity entry in the data set with tuberculosis infections is given as “excellent antituberculotic activity”. Also, the “dwell time in the organism” value in data set [3] was “relatively short dwell time in the organism”.

The term ED50 denotes the dose that gives a 50% effect, or the effect in half of the subjects.
